{"source": "patent US6803203B1", "about": "“DNA-PK assay” (Brookhaven Science Associates, priority 1993, dated 2004)", "type_in_all_cases": "biochemical", "key": {"DNA-PK [1]": {"molecular_target": "T1, DNA-PK (Homo sapiens, UniProt P78527)", "T1 construct": "DNA-PK was purified from HeLa cells; endogenous in cells; host or cells: HeLa S3 cells; the endogenous enzyme was purified in house by chromatography", "test": "Phosphorylation of synthetic peptides in crude cell extracts (HeLa, T98G)", "conditions": "for PO4 incorporated + DNA: + calf thymus DNA 10 μg/ml; for PO4 incorporated + DNA / PO4 incorporated − DNA: peptide 200 μM, 10 min 30° C.; for PO4 incorporated − DNA: without DNA", "description": "To examine cells for DNA-PK content, extracts from HeLa, T98G human glioblastoma, and mouse L 929 cells were prepared by freeze-thaw lysis of cells harvested from five nearly confluent 9-cm-diameter plates as described in Example 1 and by Lees-Miller, et al. J. Biol. Chem., 264:2431-2437 (1989). T98G (ATCC CRL 1690) is a human glioblastoma cell line; L-929 (ATCC CCL 1) was derived from connective tissue of the NCTC 2071 mouse. Based on earlier work with natural protein substrates, it was expected that extracts of HeLa and T98G cells would contain a significant amount of DNA-PK activity while the extracts of mouse L 929 would contain little, if any, DNA-PK activity. Lysates in low-salt buffer were centrifuged at 10,000×g, to give a supernatant fraction (designated S10) and pellets (designated P10). The pellets were washed by resuspension in a high salt buffer (0.5 M KCl, 25 mM N-2-hydroxyethylpiperazine-N′-2-ethanesulfonic acid (HEPES; pH 7.5), 10 mM MgCl2, 1 mM dithiothreitol) and were sonicated. The sonicated suspension was centrifuged at 10,000×g for 10 min to give a second supernatant fraction (designated P10S), which was diluted with buffer lacking KCl to give a volume equal to that of the original supernatant (S10). Protein concentrations, determined using the Bio-Rad dye-binding assay, were as follows: HeLa S10, 3 mg/ml; HeLa P10S, 1 mg/ml; T98G S10, 3.5 mg/ml;,T98G P10S, 1 mg/ml; L-929 S10, 1 mg/ml; and L-929 P10S, 0.3 mg/ml. These extracts were assayed for the ability to phosphorylate (SEQ ID NOS: 11 and 20) with and without added calf thymus DNA."}, "DNA-PK [2]": {"molecular_target": "T1, DNA-PK", "test": "Poorer substrate peptides added to (SEQ ID NO: 8) phosphorylation assays", "conditions": "peptide up to 250 μM; (SEQ ID NO: 8) at 100 μM"}, "DNA-PK [3]": {"test_system": "DNA-PK", "test": "DNA-PK activity in extracts of rat cells", "conditions": "Rat REF, peptide 0.2 mM; for Specific Activity + DNA: + calf thymus DNA 10 μg/ml; for Specific Activity − DNA: no added DNA", "description": "(§1) Extracts of additional primate and rodent cells were tested for the presence of DNA-PK activity in accordance with the method of the present invention. The DNA-PK activity was determined using the methods described in Examples 1, 4 and 5 for seven human cell lines, two African green monkey kidney lines, and six rodent cell lines.\n(§2) Extracts were prepared essentially as described in Example 10. Cells were lysed by freezing and thawing in hypotonic buffer; soluble (S10) “cytoplasmic” and insoluble in (P10) “nuclear” fractions were made by centrifuging lysates at 10,000×g for 10 min. The insoluble fraction was extracted with buffer containing 0.5 M KCl, which releases any DNA-PK that is bound to DNA. After centrifugation of the salt-washed pellet fraction, which removed the remaining insoluble material, the salt extract (P10S) was diluted and assayed as previously described.\n(§3) Protein concentrations, determined using the Bio-Rad dye binding assay, were between 0.3 and 6 mg/ml. Extracts were incubated at 30° C. for 10 min with each peptide at 0.2 mM in the absence of added DNA (−DNA) or with 10 μg/ml calf thymus DNA (+DNA). After incubation the reaction mixtures were acidified with an equal volume of 30% acetic acid and spotted on to Whatman P-81 phosphocellulose paper (Whatman, Inc., Clifton, N.J.). The filters then were washed extensively in 15% acetic acid before the adsorbed radioactivity was quantitated as described in Example 5.\n(§4) The amount of phosphate incorporated was calculated from the specific activity of the ATP. The rate of phosphate incorporation into the Ser-Gln-Glu peptide (Table 1) (SEQ ID NO: 11) in the presence of calf thymus DNA was approximately linear throughout the 10 minute reaction incubation period. Parallel assays were performed without added peptide, and these background values were subtracted to produce the activities that are shown in Table 3. Background values varied but, in all cases, were less than 0.2 nmol/min/mg (a few percent of the activity present in human cells). The specific activities were calculated from the total activity in the two fractions divided by the total protein in the two fractions. The percent of total DNA-PK activity in the S10 and P10S fractions was determined with peptide (SEQ ID NO: 11) in the presence of added calf thymus DNA. Extracts without substantial DNA-PK activity were examined for their ability to inhibit purified DNA-PK. Inhibitory activity was not detected."}, "DNA-PK [4]": {"test_system": "DNA-PK", "test": "DNA-PK activity in extracts of mouse cell lines", "conditions": "peptide 0.2 mM; for Specific Activity + DNA: + calf thymus DNA 10 μg/ml; for Specific Activity − DNA: no added DNA", "description": "as §1, §2, §3, §4"}}, "note": "No end group written: not given here."}
{"sequence": "EPPLSEQAFADLWKK [SEQ ID NO: 20]", "values": [{"measurement": "PO4 incorporated + DNA", "setting": "DNA-PK [1]; HeLa, P10S", "result": "0.0 nmol/min/ml of extract"}, {"measurement": "PO4 incorporated − DNA", "setting": "DNA-PK [1]; HeLa, P10S", "result": "0.0 nmol/min/ml of extract"}, {"measurement": "PO4 incorporated + DNA", "setting": "DNA-PK [1]; HeLa, S10", "result": "0.3 nmol/min/ml of extract"}, {"measurement": "PO4 incorporated − DNA", "setting": "DNA-PK [1]; HeLa, S10", "result": "0.0 nmol/min/ml of extract"}, {"measurement": "PO4 incorporated + DNA", "setting": "DNA-PK [1]; T98G, P10S", "result": "0.0 nmol/min/ml of extract"}, {"measurement": "PO4 incorporated − DNA", "setting": "DNA-PK [1]; T98G, P10S", "result": "0.0 nmol/min/ml of extract"}, {"measurement": "PO4 incorporated + DNA", "setting": "DNA-PK [1]; T98G, S10", "result": "0.04 nmol/min/ml of extract"}, {"measurement": "PO4 incorporated − DNA", "setting": "DNA-PK [1]; T98G, S10", "result": "0.02 nmol/min/ml of extract"}, {"measurement": "phosphorylation by crude cell extracts (in words)", "setting": "DNA-PK [1]; all extracts of Table 2 (HeLa, T98G, L 929)", "result": "poorly phosphorylated, if at all"}, {"measurement": "inhibition of phosphorylation of (SEQ ID NO: 8)", "setting": "DNA-PK [2]", "result": "None of these peptides significantly inhibited the phosphorylation"}, {"measurement": "Specific Activity + DNA", "setting": "DNA-PK [3]; P10S", "result": 0.0, "unit": "nmol PO4/min/mg protein"}, {"measurement": "Specific Activity − DNA", "setting": "DNA-PK [3]; P10S", "result": 0.03, "unit": "nmol PO4/min/mg protein"}, {"measurement": "Specific Activity + DNA", "setting": "DNA-PK [3]; S10", "result": 0.0, "unit": "nmol PO4/min/mg protein"}, {"measurement": "Specific Activity − DNA", "setting": "DNA-PK [3]; S10", "result": 0.02, "unit": "nmol PO4/min/mg protein"}, {"measurement": "Specific Activity + DNA", "setting": "DNA-PK [4]; Mouse L-929, P10S", "result": 0.0, "unit": "nmol PO4/min/mg protein"}, {"measurement": "Specific Activity − DNA", "setting": "DNA-PK [4]; Mouse L-929, P10S", "result": 0.0, "unit": "nmol PO4/min/mg protein"}, {"measurement": "Specific Activity + DNA", "setting": "DNA-PK [4]; Mouse L-929, S10", "result": 0.0, "unit": "nmol PO4/min/mg protein"}, {"measurement": "Specific Activity − DNA", "setting": "DNA-PK [4]; Mouse L-929, S10", "result": 0.0, "unit": "nmol PO4/min/mg protein"}, {"measurement": "Specific Activity + DNA", "setting": "DNA-PK [4]; Mouse SV-Balb/c, P10S", "result": 0.04, "unit": "nmol PO4/min/mg protein"}, {"measurement": "Specific Activity − DNA", "setting": "DNA-PK [4]; Mouse SV-Balb/c, P10S", "result": 0.0, "unit": "nmol PO4/min/mg protein"}, {"measurement": "Specific Activity + DNA", "setting": "DNA-PK [4]; Mouse SV-Balb/c, S10", "result": 0.06, "unit": "nmol PO4/min/mg protein"}, {"measurement": "Specific Activity − DNA", "setting": "DNA-PK [4]; Mouse SV-Balb/c, S10", "result": 0.0, "unit": "nmol PO4/min/mg protein"}]}
